Results: patent publication US9228178B2, “Engineering of xylose reductase and overexpression of xylitol dehydrogenase and xylulokinase improves xylose alcoholic fermentation in the thermotolerant yeast Hansenula polymorpha” (Archer Daniels Midland Co., priority 2008, dated 2016)
Changes are numbered by the printed parent chain. Names may count otherwise.

Columns and labels:
[1] = target: T1, Hansenula polymorpha xylose reductase (XR) variant XRm, K341R N343D, cofactor binding site SEQ ID NO: 2 (Ogataea polymorpha, UniProt A0A1B7SLF1, K271R/N273D); experiment: KM towards NADPH or NADH of engineered xylose reductase (XRm), spectrophotometric XR assay in cell extract; conditions: XRm vs native XR
T1 sequence (A0A1B7SLF1 with tags, fused parts or gaps K271R/N273D): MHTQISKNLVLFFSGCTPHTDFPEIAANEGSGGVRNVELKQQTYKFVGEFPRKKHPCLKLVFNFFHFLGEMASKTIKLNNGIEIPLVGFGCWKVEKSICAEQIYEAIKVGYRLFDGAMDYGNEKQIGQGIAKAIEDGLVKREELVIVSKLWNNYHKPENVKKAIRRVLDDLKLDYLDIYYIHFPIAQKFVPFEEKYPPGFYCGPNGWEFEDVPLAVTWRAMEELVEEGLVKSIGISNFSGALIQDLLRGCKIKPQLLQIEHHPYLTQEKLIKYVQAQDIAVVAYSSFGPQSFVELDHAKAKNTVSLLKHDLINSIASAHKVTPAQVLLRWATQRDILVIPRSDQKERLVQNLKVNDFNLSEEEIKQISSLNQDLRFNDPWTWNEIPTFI
Method: The XR activity in cell extracts was determined spectrophotometrically at 37° C. […] The reaction was started with cell extract addition.
Biochemical properties of XR in one of constructed recombinant strains (designated XRm) were studied.

[2] = target: T2, Hansenula polymorpha xylose reductase (XR), native (XRn), cofactor binding site SEQ ID NO: 1 (Ogataea polymorpha, UniProt A0A1B7SLF1); experiment: KM towards NADPH or NADH of native xylose reductase (XRn), spectrophotometric XR assay in cell extract; format: biochemical; conditions: dual cofactor specificity
T2 construct: native XYL1 ORF from CBS4732 genomic DNA, HpGAP promoter (pX1N-Z), overexpressed in H. polymorpha Δxyl1; cell extract
T2 sequence (A0A1B7SLF1 with tags, fused parts or gaps): T1 sequence (A0A1B7SLF1 with tags, fused parts or gaps K271R/N273D) with R341K, D343N
Method: (§1) The XR activity in cell extracts was determined spectrophotometrically at 37° C. […] The reaction was started with cell extract addition [3].

[3] = substrate: NC(=O)C1=CN([C@@H]2O[C@H](COP(=O)(O)OP(=O)(O)OC[C@H]3O[C@@H](n4cnc5c(N)ncnc54)[C@H](O)[C@@H]3O)[C@@H](O)[C@H]2O)C=CC1; experiment: cells, lysate or membranes; conditions: other: XRm, 37° C., pH 7.0, xylose 350 mM, NADH 20-150 μM
Method: as §1

[4] = substrate: NC(=O)C1=CN([C@@H]2O[C@H](COP(=O)(O)OP(=O)(O)OC[C@H]3O[C@@H](n4cnc5c(N)ncnc54)[C@H](OP(=O)(O)O)[C@@H]3O)[C@@H](O)[C@H]2O)C=CC1; experiment: cells, lysate or membranes; conditions: xylose as substrate, 37° C., pH 7.0, xylose 350 mM, NADPH 20-150 μM

## NC(=O)C1=CN([C@@H]2O[C@H](COP(=O)(O)OP(=O)(O)OC[C@H]3O[C@@H](n4cnc5c(N)ncnc54)[C@H](O)[C@@H]3O)[C@@H](O)[C@H]2O)C=CC1 [NADH]
[1]
  KM for NADH, compared with native XR (in words): remained nearly unchanged

## NC(=O)C1=CN([C@@H]2O[C@H](COP(=O)(O)OP(=O)(O)OC[C@H]3O[C@@H](n4cnc5c(N)ncnc54)[C@H](OP(=O)(O)O)[C@@H]3O)[C@@H](O)[C@H]2O)C=CC1 [NADPH]
[2]
  cofactor preference for NADPH (over NADH): > 10 fold
[1]
  KM for NADPH, change against native XR (in words): significant increase
[1]; xylose as substrate
  KM for NADPH, times higher than the KM for NADPH of the native XR: 17 times

B1: Hansenula polymorpha xylose reductase (XR) variant XRm, K341R N343D, cofactor binding site SEQ ID NO: 2 (Ogataea polymorpha; K271R/N273D) (protein)
chain: T1 sequence (A0A1B7SLF1 with tags, fused parts or gaps K271R/N273D)
[3]
  Km: 112 µM
[4]; other: XRm
  Km: 152 µM

B2: Hansenula polymorpha xylose reductase (XR), native (XRn), cofactor binding site SEQ ID NO: 1 (Ogataea polymorpha) (protein)
chain: T1 sequence (A0A1B7SLF1 with tags, fused parts or gaps K271R/N273D) with R341K, D343N
[4]; other: native XR
  Km: 9 µM
